Test results: EPA's ToxRefDB 2

Legend:
dog [1] = details: Subchronic oral toxicity in nonrodent, beagle, Capsule, dose end: 13 week, group: systemic
dog [2] = details: Chronic toxicity; beagle; Oral; Capsule; dose end: 52 week; group: systemic; systemic / pathology microscopic / kidney / dilatation + systemic / pathology microscopic / kidney / fibrosis + systemic / urinalysis / …
rabbit [3] = details: Prenatal developmental toxicity study; new zealand white; Oral; Gavage/Intubation; dose end: 19 GD; group: maternal; reproductive / reproductive performance / aborted / aborted + systemic / in life observation / body weight / body weight gain + systemic / …
mouse [4] = details: Carcinogenicity; b6c3f1; Oral; Feed; dose end: 104 week; group: systemic; systemic / in life observation / body weight / body weight gain + systemic / in life observation / food consumption / food consumption + …
rat [5] = details: Combined chronic toxicity/carcinogenicity, fischer, Oral, Feed, dose end: 104 week, group: systemic
rat [6] = details: Subchronic oral toxicity in rodents, fischer, Feed, dose end: 90 day, group: systemic, systemic / pathology microscopic / stomach / hyperplasia
rat [7] = details: Multigenerational reproductive toxicity study, other, Oral, Feed, dose end: 2 generation
dog [8] = details: Subchronic oral toxicity in nonrodent, beagle, Feed, dose end: 64 day, group: systemic, systemic / clinical chemistry / cytochrome p450, nos / cytochrome p450, nos + systemic / clinical chemistry / o-demethylase / o-demethylase…
rat [9] = details: Combined chronic toxicity/carcinogenicity, fischer, Oral, Feed, dose end: 24 month, group: systemic
mouse [10] = details: Carcinogenicity, other, Oral, Feed, dose end: 24 month, group: systemic
rabbit [11] = details: Prenatal developmental toxicity study, himalayan, Oral, Gavage/Intubation, dose end: 28 GD
rat [12] = details: Subchronic oral toxicity in rodents, wistar, Feed, dose end: 90 day, group: systemic, systemic / pathology microscopic / stomach / hyperplasia + systemic / pathology microscopic / stomach / infiltration cellular + systemic / …
rat [13] = details: Multigenerational reproductive toxicity study, wistar, Oral, Feed, dose end: 2 generation
mouse [14] = details: Subchronic oral toxicity in rodents, b6c3f1, Feed, dose end: 90 day, group: systemic, systemic / in life observation / body weight / body weight + systemic / in life observation / body weight / body weight gain + systemic / in…
rat [15] = details: Combined chronic toxicity/carcinogenicity, sprague dawley, Oral, Feed, dose end: 104 week
mouse [16] = details: Carcinogenicity, cd1, Oral, Feed, dose end: 105 week, group: systemic
rat [17] = details: Multigenerational reproductive toxicity study, other, Oral, Feed, dose end: 2 generation; remark: listed apart in the source
dog [18] = details: Chronic toxicity, beagle, Oral, Feed, dose end: 12 month, group: systemic
rat [19] = details: Peri- and post-natal toxicity study (Segment III), sprague dawley, Oral, Gavage/Intubation, dose end: 42 PND
dog [20] = details: Chronic toxicity; beagle; Oral; Feed; dose end: 12 month; group: systemic; systemic / pathology microscopic / adrenal gland / fatty change + systemic / pathology microscopic / adrenal gland / hyperplasia + systemic…
rat [21] = details: Subchronic oral toxicity in rodents, other, Feed, dose end: 13 week, group: systemic
[22] = systemic / clinical chemistry / potassium / potassium + systemic / in life observation / clinical signs / abnormal feces + systemic / …
[23] = group: offspring, systemic / in life observation / body weight / offspring (pup) weight
[24] = group: parental, systemic / pathology gross / stomach / thickened + systemic / pathology microscopic / stomach / acanthosis + systemic / pathology …
[25] = systemic / organ weight / kidney / relative to body weight
[26] = systemic / hematology / leukocyte (wbc) count differential / leukocyte (wbc) + systemic / hematology / mean corpuscular hemoglobin (mch) / …
[27] = systemic / hematology / mean corpuscular hemoglobin concentration (mchc) / mean corpuscular hemoglobin concentration (mchc)
[28] = group: developmental, developmental / developmental malformation / bone / absent + developmental / developmental malformation / bone / enlarged fontanel + …
[29] = group: maternal, reproductive / reproductive performance / aborted / aborted + systemic / in life observation / body weight / body weight + systemic / in …
[30] = group: parental, systemic / pathology microscopic / stomach / vacuolization
[31] = group: reproductive, reproductive / offspring survival early / birth index / live birth index
[32] = group: cholinesterase, cholinesterase / cholinesterase / cholinesterase / erythrocyte cholinesterase (che) + cholinesterase / cholinesterase / cholinesterase / …
[33] = group: cholinesterase, cholinesterase / cholinesterase / cholinesterase / plasma cholinesterase (che)
[34] = group: systemic, systemic / clinical chemistry / urea nitrogen / urea nitrogen
[35] = group: systemic, systemic / clinical chemistry / urea nitrogen / urea nitrogen + systemic / organ weight / brain / relative to body weight + systemic / organ…
[36] = systemic / in life observation / body weight / body weight gain
[37] = group: cholinesterase, cholinesterase / cholinesterase / cholinesterase / cholinesterase (che)
[38] = group: offspring, systemic / in life observation / body weight / offspring (pup) weight + developmental / offspring survival late / lactation index / …
[39] = group: parental, systemic / in life observation / body weight / body weight gain
[40] = group: reproductive, reproductive / offspring survival early / litter size / litter size
[41] = systemic / organ weight / spleen / absolute + systemic / organ weight / spleen / relative to body weight + systemic / pathology microscopic…
[42] = systemic / pathology gross / liver / accentuated lobular pattern + systemic / pathology microscopic / eye / lesion(s) (nos) + systemic / …
[43] = group: maternal, reproductive / offspring survival early / dead fetuses / dead fetuses
[44] = group: offspring, systemic / hematology / leukocyte (wbc) count differential / leukocyte (wbc) + systemic / in life observation / body weight / offspring (pup…
[45] = systemic / pathology microscopic / kidney / hypertrophy
[46] = systemic / pathology microscopic / kidney / hypertrophy + systemic / in life observation / body weight / body weight + systemic / in life …

## CCC([O-])=C1C(=O)CC(C(=O)[O-])CC1=O.[Ca+2] (stereo not given) [Prohexadione-calcium]
Dog [1]; [22]
  NEL: 80 mg/kg/day
  NOAEL: 80 mg/kg/day
Dog [1]; systemic / clinical chemistry / potassium / potassium + systemic / pathology microscopic / kidney / dilatation
  LOAEL: 400 mg/kg/day
Dog [1]; systemic / clinical chemistry / potassium / potassium + systemic / pathology microscopic / kidney / dilatation + systemic / in life …
  LEL: 400 mg/kg/day
Dog [2]
  LEL: 200 mg/kg/day
  LOAEL: 200 mg/kg/day
  NEL: 20 mg/kg/day
  NOAEL: 20 mg/kg/day
Rabbit [3]
  LEL: 200 mg/kg/day
  LOAEL: 200 mg/kg/day
  NEL: 40 mg/kg/day
  NOAEL: 40 mg/kg/day
Mouse [4]
  LEL: 2850 mg/kg/day
  LOAEL: 2850 mg/kg/day
  NEL: 279 mg/kg/day
  NOAEL: 279 mg/kg/day
Rat [5]; systemic / hematology / leukocyte (wbc) count differential / leukocyte (wbc)
  LOAEL: 469 mg/kg/day
Rat [5]; systemic / hematology / leukocyte (wbc) count differential / leukocyte (wbc) + systemic / in life observation / body weight / body weight + …
  NOAEL: 93.9 mg/kg/day
Rat [5]; systemic / pathology microscopic / thyroid gland / dilatation
  LEL: 114 mg/kg/day
Rat [5]; systemic / pathology microscopic / thyroid gland / dilatation + systemic / in life observation / body weight / body weight + systemic / in …
  NEL: 22.3 mg/kg/day
Rat [6]
  LEL: 734 mg/kg/day
  LOAEL: 734 mg/kg/day
  NEL: 73.1 mg/kg/day
  NOAEL: 73.1 mg/kg/day
Rat [7]; [23]
  LEL: 385 mg/kg/day
  LOAEL: 3850 mg/kg/day
  NEL: 35.5 mg/kg/day
  NOAEL: 385 mg/kg/day
Rat [7]; group: parental, systemic / in life observation / mortality / mortality
  LOAEL: 385 mg/kg/day
Rat [7]; group: parental, systemic / in life observation / mortality / mortality + systemic / in life observation / body weight / body weight + systemic / pathology …
  NOAEL: 35.5 mg/kg/day
Rat [7]; [24]
  LEL: 35.5 mg/kg/day
  NEL: < 35.5 mg/kg/day

## CCCOc1nn(C(=O)[N-]S(=O)(=O)c2ccccc2C(=O)OC)c(=O)n1C.[Na+] [Propoxycarbazone-sodium]
Dog [8]
  LEL: 1180 mg/kg/day
  LOAEL: > 1180 mg/kg/day
  NEL: 286 mg/kg/day
  NOAEL: ≥ 1180 mg/kg/day
Rat [9]; systemic / in life observation / body weight / body weight gain + systemic / urinalysis / ph / ph
  LOAEL: 459 mg/kg/day
Rat [9]; systemic / in life observation / body weight / body weight gain + systemic / urinalysis / ph / ph + systemic / pathology gross / full gross …
  NOAEL: 43 mg/kg/day
Rat [9]; [25]
  LEL: 43 mg/kg/day
  NEL: < 43 mg/kg/day
Mouse [10]; [26]
  LOAEL: > 1880 mg/kg/day
  NOAEL: ≥ 1880 mg/kg/day
Mouse [10]; [27]
  LEL: 74.6 mg/kg/day
  NEL: < 74.6 mg/kg/day
Rabbit [11]; [28]
  LEL: 1000 mg/kg/day
  LOAEL: > 1000 mg/kg/day
  NEL: 500 mg/kg/day
  NOAEL: ≥ 1000 mg/kg/day
Rabbit [11]; [29]
  LEL: 500 mg/kg/day
  LOAEL: 500 mg/kg/day
  NEL: 100 mg/kg/day
  NOAEL: 100 mg/kg/day
Rat [12]
  LEL: 1510 mg/kg/day
  LOAEL: 1510 mg/kg/day
  NEL: 286 mg/kg/day
  NOAEL: 286 mg/kg/day
Rat [13]; [30]
  LEL: 323 mg/kg/day
  LOAEL: 323 mg/kg/day
  NEL: 79.6 mg/kg/day
  NOAEL: 79.6 mg/kg/day
Rat [13]; [31]
  LEL: 1310 mg/kg/day
  LOAEL: 1310 mg/kg/day
  NEL: 323 mg/kg/day
  NOAEL: 323 mg/kg/day
Mouse [14]
  LEL: 860 mg/kg/day
  LOAEL: 860 mg/kg/day
  NEL: 205 mg/kg/day
  NOAEL: 205 mg/kg/day

## COP(=O)(OC)SCn1c(=O)oc2cc(Cl)cnc21 [Azamethiphos]
Rat [15]; [32]
  LOAEL: 8.1 mg/kg/day
  NOAEL: 0.8 mg/kg/day
Rat [15]; [33]
  LEL: 1.1 mg/kg/day
  NEL: < 1.1 mg/kg/day
Rat [15]; [34]
  LEL: 0.8 mg/kg/day
  NEL: < 0.8 mg/kg/day
Rat [15]; [35]
  LOAEL: > 62.6 mg/kg/day
  NOAEL: ≥ 62.6 mg/kg/day
Mouse [16]; [36]
  LEL: 6.2 mg/kg/day
  NEL: < 6.2 mg/kg/day
Mouse [16]; systemic / pathology microscopic / intestine small / hyperplasia
  LOAEL: 60.2 mg/kg/day
Mouse [16]; systemic / pathology microscopic / intestine small / hyperplasia + systemic / hematology / hematocrit (hct) / hematocrit (hct) + systemic / …
  NOAEL: 6.2 mg/kg/day
Rat [17]; [37]
  LEL: 10 mg/kg/day
  LOAEL: 10 mg/kg/day
  NEL: 2 mg/kg/day
  NOAEL: 2 mg/kg/day
Rat [17]; [23]
  LOAEL: 50 mg/kg/day
Rat [17]; [38]
  LEL: 50 mg/kg/day
  NEL: 10 mg/kg/day
  NOAEL: 10 mg/kg/day
Rat [17]; [39]
  LEL: 10 mg/kg/day
  LOAEL: 10 mg/kg/day
  NEL: 2 mg/kg/day
  NOAEL: 2 mg/kg/day
Rat [17]; [40]
  LEL: 50 mg/kg/day
  LOAEL: 50 mg/kg/day
  NEL: 10 mg/kg/day
  NOAEL: 10 mg/kg/day

## CC(C)(C)C(O)(CCc1ccc(Cl)cc1)Cn1cncn1 (stereo not given) [Tebuconazole]
Dog [18]; [41]
  LEL: 15.5 mg/kg/day
  NEL: < 15.5 mg/kg/day
Dog [18]; [42]
  LOAEL: 77.3 mg/kg/day
  NOAEL: 15.5 mg/kg/day
Rat [19]; [43]
  LEL: 60 mg/kg/day
  LOAEL: > 60 mg/kg/day
  NEL: 20 mg/kg/day
  NOAEL: ≥ 60 mg/kg/day
Rat [19]; [44]
  LEL: 60 mg/kg/day
  LOAEL: > 60 mg/kg/day
  NEL: 20 mg/kg/day
  NOAEL: ≥ 60 mg/kg/day
Rat [19]; [39]
  LEL: 60 mg/kg/day
  LOAEL: > 60 mg/kg/day
  NEL: 20 mg/kg/day
  NOAEL: ≥ 60 mg/kg/day
Dog [20]
  LEL: 4.39 mg/kg/day
  LOAEL: 4.39 mg/kg/day
  NEL: 2.96 mg/kg/day
  NOAEL: 2.96 mg/kg/day

## CCOP(=O)([O-])C(N)=O.[NH4+] [Fosamine ammonium]
Rat [21]; [45]
  LEL: 50 mg/kg/day
  LOAEL: 50 mg/kg/day
Rat [21]; [46]
  NEL: 10 mg/kg/day
  NOAEL: 10 mg/kg/day
